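At the GI50, growth is halved. TGI: concentration producing complete growth inhibition.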
Assays:
Experiment in all cases: NCI anticancer screen, dose series, 384-well format
OVCAR-5 ovarian = test system: OVCAR-5 ovarian
T-47D breast = test system: T-47D breast
OVCAR-8 ovarian = test system: OVCAR-8 ovarian
LOX IMVI melanoma = test system: LOX IMVI melanoma
SW-620 colon = test system: SW-620 colon
MDA-MB-435 melanoma = test system: MDA-MB-435 melanoma
SF-539 CNS = test system: SF-539 CNS
U251 glioblastoma = test system: U251 glioblastoma
HL-60(TB) leukemia = test system: HL-60(TB) leukemia
SF-295 CNS = test system: SF-295 CNS
BT-549 breast = test system: BT-549 breast
NCI-H23 lung = test system: NCI-H23 lung
CAKI-1 renal = test system: CAKI-1 renal
IGROV1 ovarian = test system: IGROV1 ovarian
DU-145 prostate = test system: DU-145 prostate
NCI-H322M lung = test system: NCI-H322M lung
SF-268 CNS = test system: SF-268 CNS
RPMI-8226 leukemia = test system: RPMI-8226 leukemia
SNB-75 CNS = test system: SNB-75 CNS
EKVX NSCLC = test system: EKVX NSCLC
HCT-15 colon = test system: HCT-15 colon
A498 renal = test system: A498 renal
UACC-62 melanoma = test system: UACC-62 melanoma
TK-10 renal = test system: TK-10 renal
NCI-H522 lung = test system: NCI-H522 lung
HOP-92 NSCLC = test system: HOP-92 NSCLC
CCRF-CEM leukemia = test system: CCRF-CEM leukemia
A549 NSCLC = test system: A549 NSCLC
NCI-H226 lung = test system: NCI-H226 lung
SNB-19 CNS = test system: SNB-19 CNS
UO-31 renal = test system: UO-31 renal
MDA-MB-468 breast = test system: MDA-MB-468 breast
OVCAR-4 ovarian = test system: OVCAR-4 ovarian
K-562 leukemia = test system: K-562 leukemia
OVCAR-3 ovarian = test system: OVCAR-3 ovarian
786-0 renal = test system: 786-0 renal
ACHN renal = test system: ACHN renal
MDA-MB-231 breast = test system: MDA-MB-231 breast
COLO 205 colon = test system: COLO 205 colon
KM12 colon = test system: KM12 colon
HCC-2998 colon = test system: HCC-2998 colon
MCF7 breast = test system: MCF7 breast
MALME-3M melanoma = test system: MALME-3M melanoma
HOP-62 NSCLC = test system: HOP-62 NSCLC
SN12C renal = test system: SN12C renal
HS 578T breast = test system: HS 578T breast
MOLT-4 leukemia = test system: MOLT-4 leukemia
HT29 colon = test system: HT29 colon
SK-MEL-5 melanoma = test system: SK-MEL-5 melanoma
HCT-116 colon = test system: HCT-116 colon
PC-3 prostate = test system: PC-3 prostate
RXF 393 renal = test system: RXF 393 renal
NCI-H460 NSCLC = test system: NCI-H460 NSCLC
SK-OV-3 ovarian = test system: SK-OV-3 ovarian
UACC-257 melanoma = test system: UACC-257 melanoma
NCI/ADR-RES ovarian = test system: NCI/ADR-RES ovarian
M14 melanoma = test system: M14 melanoma
SK-MEL-28 melanoma = test system: SK-MEL-28 melanoma

Structure (SMILES): O=C1[C@H](Cc2ccc(O)cc2)N2C(=O)CCN(C(=O)NCc3ccccc3)[C@H]2CN1Cc1cccc2ccccc12
- GI50 (OVCAR-5 ovarian): 1.44 µM
- TGI (OVCAR-5 ovarian): 9.66 µM
- GI50 (T-47D breast): 0.441 µM
- TGI (T-47D breast): 3.68 µM
- GI50 (OVCAR-8 ovarian): 1.35 µM
- TGI (OVCAR-8 ovarian): 11.9 µM
- GI50 (LOX IMVI melanoma): 1.15 µM
- TGI (LOX IMVI melanoma): 5.36 µM
- GI50 (SW-620 colon): 7.63 µM
- TGI (SW-620 colon): > 100 µM
- GI50 (MDA-MB-435 melanoma): 4.85 µM
- TGI (MDA-MB-435 melanoma): 17.7 µM
- GI50 (SF-539 CNS): 0.564 µM
- TGI (SF-539 CNS): 9.79 µM
- GI50 (U251 glioblastoma): 0.578 µM
- TGI (U251 glioblastoma): 11.2 µM
- GI50 (HL-60(TB) leukemia): 3.98 µM
- TGI (HL-60(TB) leukemia): 15 µM
- GI50 (SF-295 CNS): 3.79 µM
- TGI (SF-295 CNS): 13.7 µM
- GI50 (BT-549 breast): 1.28 µM
- TGI (BT-549 breast): 11.6 µM
- GI50 (NCI-H23 lung): 4.97 µM
- TGI (NCI-H23 lung): 17.7 µM
- GI50 (CAKI-1 renal): 2.15 µM
- TGI (CAKI-1 renal): 5.94 µM
- GI50 (IGROV1 ovarian): 0.353 µM
- TGI (IGROV1 ovarian): 2.49 µM
- GI50 (DU-145 prostate): 4.25 µM
- TGI (DU-145 prostate): 17.1 µM
- GI50 (NCI-H322M lung): 3.72 µM
- TGI (NCI-H322M lung): 19.1 µM
- GI50 (SF-268 CNS): 0.287 µM
- TGI (SF-268 CNS): 0.792 µM
- GI50 (RPMI-8226 leukemia): 2.03 µM
- TGI (RPMI-8226 leukemia): 12.3 µM
- GI50 (SNB-75 CNS): 0.421 µM
- TGI (SNB-75 CNS): 2.23 µM
- GI50 (EKVX NSCLC): 6.96 µM
- TGI (EKVX NSCLC): 30.7 µM
- GI50 (HCT-15 colon): 18.9 µM
- TGI (HCT-15 colon): 82.9 µM
- GI50 (A498 renal): 2.9 µM
- TGI (A498 renal): 9.62 µM
- GI50 (UACC-62 melanoma): 1.35 µM
- TGI (UACC-62 melanoma): 8.06 µM
- GI50 (TK-10 renal): 6.57 µM
- TGI (TK-10 renal): 24.1 µM
- GI50 (NCI-H522 lung): 0.518 µM
- TGI (NCI-H522 lung): 12.6 µM
- GI50 (HOP-92 NSCLC): 0.386 µM
- TGI (HOP-92 NSCLC): 1.88 µM
- GI50 (CCRF-CEM leukemia): 1.33 µM
- TGI (CCRF-CEM leukemia): 7.73 µM
- GI50 (A549 NSCLC): 1.83 µM
- TGI (A549 NSCLC): 13.8 µM
- GI50 (NCI-H226 lung): 2.95 µM
- TGI (NCI-H226 lung): 11.1 µM
- GI50 (SNB-19 CNS): 0.678 µM
- TGI (SNB-19 CNS): 21.8 µM
- GI50 (UO-31 renal): 16.1 µM
- TGI (UO-31 renal): 33.3 µM
- GI50 (MDA-MB-468 breast): 3.46 µM
- TGI (MDA-MB-468 breast): 15.6 µM
- GI50 (OVCAR-4 ovarian): 2.92 µM
- TGI (OVCAR-4 ovarian): 17.2 µM
- GI50 (K-562 leukemia): 0.828 µM
- TGI (K-562 leukemia): 14.1 µM
- GI50 (OVCAR-3 ovarian): 0.632 µM
- TGI (OVCAR-3 ovarian): 6.89 µM
- GI50 ([…]-0 renal): 2.76 µM
- TGI (786-0 renal): 16.9 µM
- GI50 (ACHN renal): 10.7 µM
- TGI (ACHN renal): 37.7 µM
- GI50 (MDA-MB-231 breast): 0.556 µM
- TGI (MDA-MB-231 breast): 12 µM
- GI50 (COLO 205 colon): 0.662 µM
- TGI (COLO 205 colon): 10.2 µM
- GI50 (KM12 colon): 2.82 µM
- TGI (KM12 colon): 13.6 µM
- GI50 (HCC-2998 colon): 2.1 µM
- TGI (HCC-2998 colon): 15.3 µM
- GI50 (MCF7 breast): 5.44 µM
- TGI (MCF7 breast): 20 µM
- GI50 (MALME-3M melanoma): 1.24 µM
- TGI (MALME-3M melanoma): 5.89 µM
- GI50 (HOP-62 NSCLC): 2.99 µM
- TGI (HOP-62 NSCLC): 11.9 µM
- GI50 (SN12C renal): 2.78 µM
- TGI (SN12C renal): 16.8 µM
- GI50 (HS 578T breast): 0.182 µM
- TGI (HS 578T breast): 0.77 µM
- GI50 (MOLT-4 leukemia): 0.319 µM
- TGI (MOLT-4 leukemia): 1.19 µM
- GI50 (HT29 colon): 3.17 µM
- TGI (HT29 colon): 15.8 µM
- GI50 (SK-MEL-5 melanoma): 1.33 µM
- TGI (SK-MEL-5 melanoma): 4.11 µM
- GI50 (HCT-116 colon): 0.738 µM
- TGI (HCT-116 colon): 11.8 µM
- GI50 (PC-3 prostate): 1.74 µM
- TGI (PC-3 prostate): 9.23 µM
- GI50 (RXF 393 renal): 3.22 µM
- TGI (RXF 393 renal): 14.6 µM
- GI50 (NCI-H460 NSCLC): 0.858 µM
- TGI (NCI-H460 NSCLC): 5.2 µM
- GI50 (SK-OV-3 ovarian): 1.66 µM
- TGI (SK-OV-3 ovarian): 10.3 µM
- GI50 (UACC-257 melanoma): 3.45 µM
- TGI (UACC-257 melanoma): 14 µM
- GI50 (NCI/ADR-RES ovarian): > 100 µM
- TGI (NCI/ADR-RES ovarian): > 100 µM
- GI50 (M14 melanoma): 2.78 µM
- TGI (M14 melanoma): 12.4 µM
- GI50 (SK-MEL-28 melanoma): 1.98 µM
- TGI (SK-MEL-28 melanoma): 11.4 µM
